Experimental data published in the NIST ThermoML archive (doi:10.1021/je020196d).
Numbers after ± are expanded uncertainties.

Key:
[1] = activity coefficient (dimensionless); of the first substance listed, at infinite dilution; xn = mol fraction of the nth substance listed; conditions: Liquid, Chromatography, x1 = 0
[2] = refractive index (Na D-line) (dimensionless); conditions: 293.15 K; 101.33 kPa; Liquid; Standard Abbe refractometry
[3] = 293.15 K; 101.33 kPa; Liquid

For CCCCCCC [heptane] + OCCOCCOCCOCCO, the activity coefficient ([1]; 333.15 K) was 50.2 ± 2.3, the activity coefficient ([1]; 353.15 K) was 37.6 ± 1.7 and the activity coefficient ([1]; 363.15 K) was 32.1 ± 1.5. It also gave an activity coefficient ([1]; 373.1 K) of 29.8 ± 1.4, an activity coefficient ([1]; 383.15 K) of 26.1 ± 1.2 and an activity coefficient ([1]; 393.15 K) of 23.1 ± 1.1. The activity coefficient ([1]; 403.15 K) was 20.8 ± 0.96.

CCCCCCCCC [nonane] + OCCOCCOCCOCCO gave an activity coefficient ([1]; 333.15 K) of 92.3 ± 4.3, an activity coefficient ([1]; 353.15 K) of 64.7 ± 3 and an activity coefficient ([1]; 363.15 K) of 57.4 ± 2.7. The activity coefficient ([1]; 373.1 K) was 49.3 ± 2.3, the activity coefficient ([1]; 383.15 K) was 42.9 ± 2 and the activity coefficient ([1]; 393.15 K) was 39.7 ± 1.8. The activity coefficient ([1]; 403.15 K) was 34.1 ± 1.6.

With Cc1ccccc1 [toluene] + OCCOCCOCCOCCO the activity coefficient ([1]; 333.15 K) was 4.5 ± 0.21, the activity coefficient ([1]; 353.15 K) was 4.02 ± 0.18 and the activity coefficient ([1]; 363.15 K) was 3.85 ± 0.18. The activity coefficient ([1]; 373.1 K) was 3.62 ± 0.16, the activity coefficient ([1]; 383.15 K) was 3.46 ± 0.16 and the activity coefficient ([1]; 393.15 K) was 3.37 ± 0.15. For the same compound, the activity coefficient ([1]; 403.15 K) was 3.21 ± 0.15.

OCCOCCOCCO [triethylene glycol] showed a refractive index [2] of 1.4556 ± 0.0007 and a mass density [3] of 1127.8 ± 5 kg/m3.

Cc1ccccc1 [toluene] showed a refractive index [2] of 1.4962 ± 0.0007 and a mass density [3] of 866.7 ± 5 kg/m3.

In the case of CCCCCCCCC [nonane], the refractive index [2] is reported as 1.4057 ± 0.0007 and the mass density [3] is reported as 717.8 ± 5 kg/m3.

For CCc1ccccc1 [ethylbenzene] + OCCOCCOCCOCCO, the activity coefficient ([1]; 333.15 K) was 6.39 ± 0.29, the activity coefficient ([1]; 353.15 K) was 5.63 ± 0.26 and the activity coefficient ([1]; 363.15 K) was 5.31 ± 0.24. The activity coefficient ([1]; 373.1 K) was 5 ± 0.23, the activity coefficient ([1]; 383.15 K) was 4.73 ± 0.22 and the activity coefficient ([1]; 393.15 K) was 4.58 ± 0.21. For the same compound, the activity coefficient ([1]; 403.15 K) was 4.35 ± 0.2.

For CCCCCCCC [octane] + OCCOCCOCCO, the activity coefficient ([1]; 323.15 K) was 129 ± 6.1, the activity coefficient ([1]; 333.15 K) was 113 ± 5.3 and the activity coefficient ([1]; 343.15 K) was 99.5 ± 4.7. It also gave an activity coefficient ([1]; 353.15 K) of 86.9 ± 4.1, an activity coefficient ([1]; 363.15 K) of 75.8 ± 3.5 and an activity coefficient ([1]; 373.1 K) of 68.7 ± 3.2. The activity coefficient ([1]; 383.15 K) was 60.5 ± 2.8 and the activity coefficient ([1]; 393.15 K) was 56.7 ± 2.6.

With c1ccccc1 [benzene] the refractive index [2] was 1.5015 ± 0.0007 and the mass density [3] was 878.3 ± 5 kg/m3.

CCCCCCCC [octane] showed a refractive index [2] of 1.3975 ± 0.0007 and a mass density [3] of 702.6 ± 5 kg/m3.

With CCCCCCCCC [nonane] + OCCOCCOCCO the activity coefficient ([1]; 323.15 K) was 183 ± 8.6, the activity coefficient ([1]; 333.15 K) was 156 ± 7.4 and the activity coefficient ([1]; 343.15 K) was 140 ± 6.6. It also gave an activity coefficient ([1]; 353.15 K) of 119 ± 5.6, an activity coefficient ([1]; 363.15 K) of 103 ± 4.8 and an activity coefficient ([1]; 373.1 K) of 93 ± 4.4. For the same compound, the activity coefficient ([1]; 383.15 K) was 81.4 ± 3.8 and the activity coefficient ([1]; 393.15 K) was 73.9 ± 3.5.

In the case of CCc1ccccc1 [ethylbenzene], the refractive index [2] is reported as 1.4955 ± 0.0007 and the mass density [3] is reported as 867.4 ± 5 kg/m3.

With CCCCCCC [heptane] + OCCOCCOCCO the activity coefficient ([1]; 323.15 K) was 93.3 ± 4.4, the activity coefficient ([1]; 333.15 K) was 82.7 ± 3.9 and the activity coefficient ([1]; 343.15 K) was 71.9 ± 3.4. The activity coefficient ([1]; 353.15 K) was 62.7 ± 2.9, the activity coefficient ([1]; 363.15 K) was 55.3 ± 2.6 and the activity coefficient ([1]; 373.1 K) was 50.2 ± 2.3. It also gave an activity coefficient ([1]; 383.15 K) of 44.3 ± 2.1 and an activity coefficient ([1]; 393.15 K) of 40.6 ± 1.9.
